# Assay results as given in patent US10597388B2, “Pyridazinone herbicides” (FMC CORPORATION, priority 2014, dated 2020).
# How the values were obtained:
# Experiment in all cases: Test D controlled growth environment herbicide test, pre- and postemergence
# Format in all cases: in vivo
# [1] = test system: Russian thistle (Salsola kali)
# How it was run: (§1)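 Species sown in silt loam and sprayed preemergence, or grown in peat-based medium to 2–18 cm (1- to 4-leaf stage) and sprayed postemergence, with compounds in non-phytotoxic solvent plus surfactant. Visual injury scored versus controls after 14–21 d in a controlled environment, 0 (no effect) to 100 (complete control).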
# [2] = test system: barley, spring (spring barley, Hordeum vulgare)
# How it was run: as §1
# [3] = test system: buckwheat, wild (wild buckwheat, Polygonum convolvulus)
# How it was run: as §1
# [4] = test system: canarygrass (Phalaris minor)
# How it was run: as §1
# [5] = test system: deadnettle (henbit deadnettle, Lamium amplexicaule)
# How it was run: as §1
# [6] = test system: field poppy (Papaver rhoeas)
# How it was run: as §1
# [7] = test system: oat, wild (wild oat, Avena fatua)
# How it was run: as §1
# [8] = test system: oilseed rape (Brassica napus)
# How it was run: as §1
# [9] = test system: radish, wild (wild radish, Raphanus raphanistrum)
# How it was run: as §1
# [10] = test system: ryegrass, Italian (Italian ryegrass, Lolium multiflorum)
# How it was run: as §1
# [11] = test system: speedwell (bird's-eye speedwell, Veronica persica)
# How it was run: as §1
# [12] = test system: wheat, spring (spring wheat, Triticum aestivum)
# How it was run: as §1
# [13] = test system: windgrass (Apera spica-venti)
# How it was run: as §1
# [14] = Postemergence, 31 g ai/ha, scale 0 to 100 (0 no effect, 100 complete control)
# [15] = Postemergence, 125 g ai/ha, visual rating on scale 0 (no effect) to 100 (complete control), 14 to 21 d
# [16] = Postemergence, 250 g ai/ha, scale 0 to 100 (0 no effect, 100 complete control)
# [17] = Preemergence, 62 g ai/ha, scale 0 to 100 (0 no effect, 100 complete control)
# [18] = Preemergence, 125 g ai/ha, scale 0 to 100 (0 no effect, 100 complete control)
# [19] = Preemergence, 250 g ai/ha, scale 0 to 100, 0 no effect, 100 complete control
# [20] = postemergence, 62 g ai/ha, scale 0 to 100, 0 no effect, 100 complete control
smiles,measurement,setting,value
COC(=O)Oc1c(C)nn(C)c(=O)c1-c1c(C)sc2ccc(C)cc12 [Compound 80],Russian Thistle plant response rating,[1]; [14],70
same,"Plant response rating, Russian Thistle",[1]; [15],80
same,"Plant response rating, Russian Thistle",[1]; [16],80
same,"Plant response rating (scale of 0 to 100), Russian Thistle","[1]; Preemergence, 31 g ai/ha",10
same,"Plant response rating, Russian Thistle",[1]; [17],95
same,"Plant response rating, Russian Thistle",[1]; [18],95
same,"Plant response rating, Russian Thistle",[1]; [19],100
same,"Plant response rating, Russian Thistle",[1]; [20],70
same,"Barley, Spring plant response rating",[2]; [14],0
same,"Plant response rating, Barley, Spring",[2]; [15],15
same,"Plant response rating, Barley, Spring",[2]; [16],25
same,"Plant response rating (scale of 0 to 100), Barley, Spring","[2]; Preemergence, 31 g ai/ha",0
same,"Plant response rating, Barley, Spring",[2]; [17],0
same,"Plant response rating, Barley, Spring",[2]; [18],5
same,"Plant response rating, Barley, Spring",[2]; [19],0
same,"Plant response rating, Barley, Spring",[2]; [20],10
same,"Buckwheat, Wild plant response rating",[3]; [14],100
same,"Plant response rating, Buckwheat, Wild",[3]; [15],100
same,"Plant response rating, Buckwheat, Wild",[3]; [16],100
same,"Plant response rating (scale of 0 to 100), Buckwheat, Wild","[3]; Preemergence, 31 g ai/ha",0
same,"Plant response rating, Buckwheat, Wild",[3]; [17],25
same,"Plant response rating, Buckwheat, Wild",[3]; [18],20
same,"Plant response rating, Buckwheat, Wild",[3]; [19],20
same,"Plant response rating, Buckwheat, Wild",[3]; [20],100
same,Canarygrass plant response rating,[4]; [14],55
same,"Plant response rating, Canarygrass",[4]; [15],85
same,"Plant response rating, Canarygrass",[4]; [16],90
same,"Plant response rating (scale of 0 to 100), Canarygrass","[4]; Preemergence, 31 g ai/ha",85
same,"Plant response rating, Canarygrass",[4]; [17],90
same,"Plant response rating, Canarygrass",[4]; [18],90
same,"Plant response rating, Canarygrass",[4]; [19],100
same,"Plant response rating, Canarygrass",[4]; [20],80
same,Deadnettle plant response rating,[5]; [14],35
same,"Plant response rating, Deadnettle",[5]; [15],35
same,"Plant response rating, Deadnettle",[5]; [16],50
same,"Plant response rating (scale of 0 to 100), Deadnettle","[5]; Preemergence, 31 g ai/ha",55
same,"Plant response rating, Deadnettle",[5]; [17],65
same,"Plant response rating, Deadnettle",[5]; [18],70
same,"Plant response rating, Deadnettle",[5]; [19],75
same,"Plant response rating, Deadnettle",[5]; [20],25
same,Field Poppy plant response rating,[6]; [14],60
same,"Plant response rating, Field Poppy",[6]; [15],100
same,"Plant response rating, Field Poppy",[6]; [16],100
same,"Plant response rating (scale of 0 to 100), Field Poppy","[6]; Preemergence, 31 g ai/ha",90
same,"Plant response rating, Field Poppy",[6]; [17],100
same,"Plant response rating, Field Poppy",[6]; [18],100
same,"Plant response rating, Field Poppy",[6]; [19],100
same,"Plant response rating, Field Poppy",[6]; [20],80
same,"Oat, Wild plant response rating",[7]; [14],95
same,"Plant response rating, Oat, Wild",[7]; [15],100
same,"Plant response rating, Oat, Wild",[7]; [16],100
same,"Plant response rating (scale of 0 to 100), Oat, Wild","[7]; Preemergence, 31 g ai/ha",85
same,"Plant response rating, Oat, Wild",[7]; [17],90
same,"Plant response rating, Oat, Wild",[7]; [18],90
same,"Plant response rating, Oat, Wild",[7]; [19],95
same,"Plant response rating, Oat, Wild",[7]; [20],98
same,Oilseed Rape plant response rating,[8]; [14],15
same,"Plant response rating, Oilseed Rape",[8]; [15],65
same,"Plant response rating, Oilseed Rape",[8]; [16],75
same,"Plant response rating (scale of 0 to 100), Oilseed Rape","[8]; Preemergence, 31 g ai/ha",35
same,"Plant response rating, Oilseed Rape",[8]; [17],35
same,"Plant response rating, Oilseed Rape",[8]; [18],35
same,"Plant response rating, Oilseed Rape",[8]; [19],40
same,"Plant response rating, Oilseed Rape",[8]; [20],55
same,"Radish, Wild plant response rating",[9]; [14],10
same,"Plant response rating, Radish, Wild",[9]; [15],50
same,"Plant response rating, Radish, Wild",[9]; [16],65
same,"Plant response rating (scale of 0 to 100), Radish, Wild","[9]; Preemergence, 31 g ai/ha",20
same,"Plant response rating, Radish, Wild",[9]; [17],75
same,"Plant response rating, Radish, Wild",[9]; [18],100
same,"Plant response rating, Radish, Wild",[9]; [19],100
same,"Plant response rating, Radish, Wild",[9]; [20],50
same,"Ryegrass, Italian plant response rating",[10]; [14],85
same,"Plant response rating, Ryegrass, Italian",[10]; [15],98
same,"Plant response rating, Ryegrass, Italian",[10]; [16],100
same,"Plant response rating (scale of 0 to 100), Ryegrass, Italian","[10]; Preemergence, 31 g ai/ha",90
same,"Plant response rating, Ryegrass, Italian",[10]; [17],90
same,"Plant response rating, Ryegrass, Italian",[10]; [18],95
same,"Plant response rating, Ryegrass, Italian",[10]; [19],100
same,"Plant response rating, Ryegrass, Italian",[10]; [20],95
same,Speedwell plant response rating,[11]; [14],65
same,"Plant response rating, Speedwell",[11]; [15],85
same,"Plant response rating, Speedwell",[11]; [16],80
same,"Plant response rating (scale of 0 to 100), Speedwell","[11]; Preemergence, 31 g ai/ha",65
same,"Plant response rating, Speedwell",[11]; [17],95
same,"Plant response rating, Speedwell",[11]; [18],95
same,"Plant response rating, Speedwell",[11]; [19],100
same,"Plant response rating, Speedwell",[11]; [20],75
same,"Wheat, Spring plant response rating",[12]; [14],0
same,"Plant response rating, Wheat, Spring",[12]; [15],15
same,"Plant response rating, Wheat, Spring",[12]; [16],30
same,"Plant response rating (scale of 0 to 100), Wheat, Spring","[12]; Preemergence, 31 g ai/ha",0
same,"Plant response rating, Wheat, Spring",[12]; [17],0
same,"Plant response rating, Wheat, Spring",[12]; [18],25
same,"Plant response rating, Wheat, Spring",[12]; [19],35
same,"Plant response rating, Wheat, Spring",[12]; [20],10
same,Windgrass plant response rating,[13]; [14],75
same,"Plant response rating, Windgrass",[13]; [15],95
same,"Plant response rating, Windgrass",[13]; [16],98
same,"Plant response rating (scale of 0 to 100), Windgrass","[13]; Preemergence, 31 g ai/ha",75
same,"Plant response rating, Windgrass",[13]; [17],90
same,"Plant response rating, Windgrass",[13]; [18],95
same,"Plant response rating, Windgrass",[13]; [19],98
same,"Plant response rating, Windgrass",[13]; [20],90
